In paper PMC8027839 (Scientific Reports, 2021):
Entries after “also recorded” stand apart in the source; their conditions may differ. Like-named read-outs stand apart in the source and are kept apart here.

Assays:
SapM [1] = target: T1, SapM (Mycobacterium tuberculosis, UniProt O53361); test: biochemical; format: biochemical; details: for remaining activity at 100 µM: 0.5 h, read-out: %SA (percentage specific activity of SapM); for inhibition at 100 µM: read-out: inhibition of SapM activity (reduction in SA)
T1 construct: made in house; host or cells: Escherichia coli C41 (DE3)
T1 sequence (O53361 44-299): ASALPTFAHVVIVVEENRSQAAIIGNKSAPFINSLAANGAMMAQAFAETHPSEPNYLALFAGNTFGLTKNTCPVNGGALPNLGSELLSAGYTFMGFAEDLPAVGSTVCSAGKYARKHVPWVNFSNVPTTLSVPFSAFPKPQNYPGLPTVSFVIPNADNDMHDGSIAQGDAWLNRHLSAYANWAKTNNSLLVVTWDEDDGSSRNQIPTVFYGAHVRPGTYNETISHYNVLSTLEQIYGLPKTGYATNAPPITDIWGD

MptpA = MptpA (Mycobacterium tuberculosis, UniProt P9WIA1); test: biochemical; details: pH 6
MptpB = MptpB (Mycobacterium tuberculosis, UniProt I6WXK4); test: biochemical; details: pH 6
SapM [2] = target: T1, SapM; parameters: method as in PMID 31312014; details: previously reported; cited from earlier work
SapM [3] = target: T1, SapM; test: Type of inhibition of SapM, Lineweaver-Burk plots; format: biochemical
Description: To determine the type of inhibition different inhibitor concentrations were selected to yield around 30% and 75% inhibition for each concentration of pNPP. This ensures sufficient signal to obtain accurate data while allowing a significant inhibition effect. Velocity (V) was plotted as a function of pNPP concentration and fit in a Lineweaver–Burk plot (double-reciprocal) using GraphPad Prism 8.41. All assays were done in 96-well microplates and performed in triplicate in at least two independent experiments.

AcpA = AcpA (Francisella tularensis subsp. novicida, UniProt A0Q436); test: biochemical
[4] = compounds at 100 µM, relative to pNPP DMSO control

Sequence of MptpB (I6WXK4 whole entry, looked up): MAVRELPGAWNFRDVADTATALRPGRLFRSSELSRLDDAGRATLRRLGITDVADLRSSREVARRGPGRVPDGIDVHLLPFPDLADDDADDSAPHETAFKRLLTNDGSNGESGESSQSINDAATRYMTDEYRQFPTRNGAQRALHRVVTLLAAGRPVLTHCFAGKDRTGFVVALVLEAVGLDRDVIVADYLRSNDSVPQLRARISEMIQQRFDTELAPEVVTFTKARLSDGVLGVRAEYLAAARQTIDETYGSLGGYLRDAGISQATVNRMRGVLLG
Sequence of MptpA (P9WIA1 whole entry): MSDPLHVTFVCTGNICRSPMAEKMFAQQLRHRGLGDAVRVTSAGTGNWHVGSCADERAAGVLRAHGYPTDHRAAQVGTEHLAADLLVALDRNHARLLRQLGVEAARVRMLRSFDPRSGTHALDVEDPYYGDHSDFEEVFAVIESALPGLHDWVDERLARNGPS
Sequence of AcpA (A0Q436 21-514 limits assumed): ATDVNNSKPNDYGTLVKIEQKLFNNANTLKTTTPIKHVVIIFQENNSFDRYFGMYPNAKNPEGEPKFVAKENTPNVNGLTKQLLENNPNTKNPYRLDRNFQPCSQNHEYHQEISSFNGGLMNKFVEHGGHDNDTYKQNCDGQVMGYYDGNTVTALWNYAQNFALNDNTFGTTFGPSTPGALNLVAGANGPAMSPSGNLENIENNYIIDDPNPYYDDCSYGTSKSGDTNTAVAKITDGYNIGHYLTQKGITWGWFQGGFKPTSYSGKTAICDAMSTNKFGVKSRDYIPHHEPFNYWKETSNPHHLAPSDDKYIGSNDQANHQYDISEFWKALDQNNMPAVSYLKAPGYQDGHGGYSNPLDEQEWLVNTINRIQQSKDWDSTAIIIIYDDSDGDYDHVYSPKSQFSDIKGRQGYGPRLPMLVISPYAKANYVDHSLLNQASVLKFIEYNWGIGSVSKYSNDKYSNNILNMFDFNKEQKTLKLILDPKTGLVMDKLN

## N#CC(C#N)=Cc1ccc([N+](=O)[O-])c(O)c1 [Compound 19, Tyrphostin AG 126]
SapM [1]; [4]
  %SA (percentage specific activity of SapM): 99.0 ± 5.5%

## Tyrphostin AG 974 [Compound 17]
SapM [1]; [4]
  %SA (percentage specific activity of SapM): 71.9 ± 1.4%

## N#CC(C#N)=Cc1ccc(O)cc1 [Compound 12, Tyrphostin 8]
SapM [1]
  %SA (percentage specific activity of SapM): 104.2 ± 4.2%
SapM [1]; 100 µM
  inhibition of SapM activity (reduction in SA): less than 21%

## C[C@H](O)[C@H](O)[C@H]1CNc2[nH]c(N)nc(=O)c2N1.Cl.Cl [Compound 5, (6R)-BH4, reference compound]
SapM [1]; [4]
  %SA (percentage specific activity of SapM): 33.3 ± 0.3%
SapM [1]; pNPP assay, dose-response
  IC50: 73.9 ± 1.2 µM

## O=[N+]([O-])c1ccc(Oc2ccc(Br)cc2)c(C(O)P(=O)(O)O)c1 (stereo not drawn) [Compound 6, RWJ-60475]
MptpA
  IC50: > 100 µM
MptpB
  IC50: > 100 µM
SapM [1]
  %SA (percentage specific activity of SapM): 46.6 ± 0.9%
  IC50: 41.9 ± 1.1 µM

## O=C1O[C@H]([C@@H](O)CO)C(O)=C1O [L-AC, L-ascorbic acid]
SapM [2]
  IC50: > 200 µM

## O=c1c(-c2ccc(O)cc2)coc2cc(O)ccc12 [Compound 23, Daidzein]
SapM [1]; [4]
  remaining activity at 100 µM: 108 ± 17.2%

## N#CC(C#N)=Cc1cc(O)c(O)c(O)c1 [Compound 14, Tyrphostin AG 82]
SapM [3]
  mechanism of inhibition of SapM: uncompetitive inhibitors
MptpA; pNPP assay
  IC50: 23.7 ± 1.1 µM
MptpB; pNPP assay
  IC50: > 100 µM
SapM [1]; [4]
  remaining activity at 100 µM: 0%
SapM [1]; compounds at 100 µM
  effect on SapM enzyme activity: completely abolished enzyme activity; also recorded: abolished enzyme activity completely
SapM [1]; pNPP assay, dose-response
  IC50: 14.5 ± 1 µM

## CCCCCCCCCCCC(=O)c1c(O)c(C(=O)CCCCCCCCCCC)c(O)c(C2CC(c3ccc(O)cc3)Oc3cc(O)ccc32)c1O (stereo not drawn) [Compound 3, YM-26734]
MptpA
  IC50: > 100 µM
MptpB
  IC50: > 100 µM
SapM [1]
  %SA (percentage specific activity of SapM): 0%
  IC50: 19.8 ± 1.1 µM
  effect on SapM enzyme activity: completely abolished the enzymatic activity

## O=c1c(O)c(-c2cc(O)c(O)c(O)c2)oc2cc(O)cc(O)c12 [Compound 26, Myricetin]
SapM [1]; [4]
  remaining activity at 100 µM: 84 ± 6.2%
SapM [1]; compounds at 100 µM
  effect on SapM enzyme activity: none or poor activity

## N#C/C(=C\c1ccc(O)c(O)c1)C(N)=O [Compound 16, Tyrphostin AG 99]
SapM [1]; [4]
  %SA (percentage specific activity of SapM): 58.3 ± 0.6%

## Oc1cc(O)c2c(c1)O[C@@H](c1cc(O)c(O)c(O)c1)[C@H](O)C2 [Compound 30, (−)-Gallocatechin]
SapM [1]; [4]
  remaining activity at 100 µM: 60.4 ± 6.4%
SapM [1]; compounds at 100 µM
  inhibition at 100 µM: ~40%

## O=C1O[C@H]([C@@H](O)CO)C(O)=C1OP(=O)(O)O [Compound 2P-AC, 2-phospho-L-ascorbic acid]
SapM [2]
  IC50: > 200 µM
AcpA
  IC50: 116 ± 1.02 µM

## O=C(O)c1cc(O)c(O)c(O)c1 [Compound 29, Gallic acid]
MptpA; pNPP assay
  IC50: > 100 µM
MptpB; pNPP assay
  IC50: > 100 µM
SapM [1]; [4]
  remaining activity at 100 µM: 30.7 ± 3.6%
SapM [1]; compounds at 100 µM
  inhibition at 100 µM: ~70%
SapM [1]; pNPP assay, dose-response
  IC50: 63 ± 1.5 µM

## Oc1cc(O)c2c(c1)O[C@H](c1ccc(O)c(O)c1)[C@H](O)[C@H]2c1c(O)cc(O)c2c1O[C@H](c1ccc(O)c(O)c1)[C@H](O)C2 [Compound 31, Procyanidin B2]
SapM [1]; [4]
  remaining activity at 100 µM: 100 ± 14.5%

## N#CC(C#N)=Cc1ccc(O)c(O)c1 [Compound 7, Tyrphostin 23]
SapM [1]; [4]
  remaining activity at 100 µM: 73.5 ± 3.1%
SapM [1]; compounds at 100 µM
  inhibition at 100 µM: 30 to 50%

## Oc1cc(O)c2c(c1)O[C@H](c1ccc(O)c(O)c1)[C@H](O)C2 [Compound 32, (−)-Epicatechin]
SapM [1]; [4]
  remaining activity at 100 µM: 97.9 ± 7.2%
